Measurements taken from PubChem BioAssay AID248 (DTP/NCI, 2004).
Values joined by “and” are separate entries in the source; they are usually repeats but may differ in a detail not shown here. Equal entries are not always repeated. Toxic doses and inconclusive results are not listed.

System: L1210 leukemia ip in BDF1 mice, survival T/C
Experiment: NCI In Vivo Anticancer Drug Screen. Data for tumor model L1210 Leukemia (intraperitoneal) in B6D2F1 (BDF1) mice
Settings: endpoint: mean survival time, higher = longer survival
In short: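 Read-out is survival time, reported as the treated-group measurement over the vehicle-control measurement.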

[1] = dose: 100.0 mg/kg/injection, schedule: Q04DX003 (ip), vehicle: saline
[2] = dose: 200.0 mg/kg/injection, schedule: Q04DX003 (ip), vehicle: saline
[3] = dose: 400.0 mg/kg/injection, schedule: Q04DX003 (ip), vehicle: saline
[4] = dose: 100.0 mg/kg/injection, schedule: Q01DX009 (ip), vehicle: saline with Tween-80
[5] = dose: 100.0 mg/kg/injection, schedule: Q01DX001 (ip), vehicle: saline
[6] = dose: 200.0 mg/kg/injection, schedule: Q01DX001 (ip), vehicle: saline
[7] = dose: 400.0 mg/kg/injection, schedule: Q01DX001 (ip), vehicle: saline
[8] = dose: 100.0 mg/kg/injection, schedule: Q04DX002 (ip), vehicle: Klucel (hydroxypropylcellulose) (HPC)
[9] = dose: 200.0 mg/kg/injection, schedule: Q04DX002 (ip), vehicle: Klucel (hydroxypropylcellulose) (HPC)
[10] = dose: 25.0 mg/kg/injection, schedule: Q04DX003 (ip), vehicle: saline
[11] = dose: 100.0 mg/kg/injection, schedule: Q04DX003 (ip), vehicle: carboxymethylcellulose (CMC)
[12] = dose: 200.0 mg/kg/injection, schedule: Q04DX003 (ip), vehicle: carboxymethylcellulose (CMC)
[13] = dose: 100.0 mg/kg/injection, schedule: Q04DX003 (ip), vehicle: saline with Tween-80
[14] = dose: 200.0 mg/kg/injection, schedule: Q04DX003 (ip), vehicle: saline with Tween-80
[15] = dose: 400.0 mg/kg/injection, schedule: Q04DX003 (ip), vehicle: saline with Tween-80
[16] = dose: 200.0 mg/kg/injection, schedule: Q01DX009 (ip), vehicle: saline with Tween-80
[17] = dose: 400.0 mg/kg/injection, schedule: Q01DX009 (ip), vehicle: saline with Tween-80

CCN(C)CCN(C)CC
T/C (dose: 100.0 mg/kg/injection, schedule: Q01DX009 (ip), vehicle: saline): 102 % of control | T/C [1]: 97 % of control | T/C (dose: 200.0 mg/kg/injection, schedule: Q01DX009 (ip), vehicle: saline): 104 % of control | T/C [2]: 99 % of control | T/C (dose: 400.0 mg/kg/injection, schedule: Q01DX009 (ip), vehicle: saline): 106 % of control | T/C [3]: 99 % of control

CCCCNC(=S)NC1CC(O[C@H]2C[C@](O)(C(C)=O)Cc3c(O)c4c(c(O)c32)C(=O)c2c(OC)cccc2C4=O)OC(C)C1O (some centres not stated)
T/C [4]: 94 % of control

O=P(Oc1ccccc1)(Oc1ccccc1)Oc1ccccc1Cl
T/C [5]: 96 % of control | T/C [6]: 102 % of control | T/C [7]: 97 % of control

CCOC(=O)c1c(C)oc(=O)c(Br)c1C
T/C [1]: 97 % of control | T/C [2]: 100 % of control | T/C [3]: 94 % of control

O=C(N/N=C/c1cccnc1)c1cccc([N+](=O)[O-])c1
T/C (dose: 100.0 mg/kg/injection, schedule: Q01DX009 (ip), vehicle: Klucel (hydroxypropylcellulose) (HPC)): 89 % of control | T/C (dose: 200.0 mg/kg/injection, schedule: Q01DX009 (ip), vehicle: Klucel (hydroxypropylcellulose) (HPC)): 95 % of control | T/C (dose: 400.0 mg/kg/injection, schedule: Q01DX009 (ip), vehicle: Klucel (hydroxypropylcellulose) (HPC)): 101 % of control

COc1cc2c(cc1OC)C1CCC3=C(O)CCC3=[N+]1CC2 (configuration not stated)
T/C [8]: 101 % of control | T/C [9]: 86 % of control

Cc1cc(=O)c2ccccc2[nH]1
T/C [10]: 94 % of control | T/C (dose: 50.0 mg/kg/injection, schedule: Q04DX003 (ip), vehicle: saline): 100 % of control | T/C [1]: 94 % of control and 96 % of control

O=C1CC(=O)C(Br)=C1Br
T/C (dose: 1.5 mg/kg/injection, schedule: Q04DX003 (ip), vehicle: saline with Tween-80): 101 % of control | T/C (dose: 3.0 mg/kg/injection, schedule: Q04DX003 (ip), vehicle: saline with Tween-80): 105 % of control

O=C1c2cccc3c([N+](=O)[O-])ccc(c23)C(=O)N1NCCO
T/C [11]: 102 % of control | T/C [12]: 100 % of control

C1=Nc2ccccc2/C1=C/c1ccc2c(c1)OCO2
T/C (dose: 100.0 mg/kg/injection, schedule: Q01DX009 (ip), vehicle: carboxymethylcellulose (CMC)): 97 % of control and 102 % of control | T/C (dose: 100.0 mg/kg/injection, schedule: Q04DX002 (ip), vehicle: carboxymethylcellulose (CMC)): 93 % of control and 102 % of control | T/C [11]: 98 % of control | T/C (dose: 200.0 mg/kg/injection, schedule: Q01DX009 (ip), vehicle: carboxymethylcellulose (CMC)): 96 % of control and 87 % of control | T/C (dose: 200.0 mg/kg/injection, schedule: Q04DX002 (ip), vehicle: carboxymethylcellulose (CMC)): 93 % of control and 98 % of control | T/C [12]: 93 % of control | T/C (dose: 400.0 mg/kg/injection, schedule: Q01DX009 (ip), vehicle: carboxymethylcellulose (CMC)): 93 % of control and 94 % of control | T/C (dose: 400.0 mg/kg/injection, schedule: Q04DX002 (ip), vehicle: carboxymethylcellulose (CMC)): 104 % of control and 107 % of control | T/C (dose: 400.0 mg/kg/injection, schedule: Q04DX003 (ip), vehicle: carboxymethylcellulose (CMC)): 96 % of control

ICC1COC(CI)CO1 (configuration not stated)
T/C (dose: 100.0 mg/kg/injection, schedule: Q01DX001 (ip), vehicle: carboxymethylcellulose (CMC)): 97 % of control | T/C (dose: 200.0 mg/kg/injection, schedule: Q01DX001 (ip), vehicle: carboxymethylcellulose (CMC)): 111 % of control and 95 % of control | T/C (dose: 400.0 mg/kg/injection, schedule: Q01DX001 (ip), vehicle: carboxymethylcellulose (CMC)): 95 % of control and 97 % of control

CCCCN(CCCC)C(=O)NS(=O)(=O)c1ccc(N)cc1
T/C [13]: 95 % of control | T/C [14]: 104 % of control | T/C [15]: 101 % of control

CC(=O)OCC(C)CCC(=O)C(C)C1C(=O)CC2C3CC=C4CC(OC(C)=O)CCC4(C)C3CCC21C (configuration not stated)
T/C [4]: 96 % of control | T/C [16]: 97 % of control | T/C [17]: 96 % of control

O=C(O)c1cccc([N+](=O)[O-])c1C(=O)O
T/C [4]: 95 % of control | T/C [8]: 98 % of control | T/C [16]: 95 % of control | T/C [9]: 88 % of control | T/C (dose: 400.0 mg/kg/injection, schedule: Q04DX002 (ip), vehicle: Klucel (hydroxypropylcellulose) (HPC)): 88 % of control

O=C(Nc1ccc(C2=NCCCN2)cc1)c1ccc(C(=O)Nc2ccc(C3=NCCCN3)cc2)nc1
T/C (dose: 1.5 mg/kg/injection, schedule: Q01DX Z (ip), vehicle: water): 122 % of control | T/C (dose: 3.0 mg/kg/injection, schedule: Q01DX Z (ip), vehicle: water): 114 % of control | T/C (dose: 3.0 mg/kg/injection, schedule: Q01DX Z (oral), vehicle: water): 97 % of control | T/C (dose: 6.0 mg/kg/injection, schedule: Q01DX Z (ip), vehicle: water): 172 % of control | T/C (dose: 6.25 mg/kg/injection, schedule: Q01DX Z (oral), vehicle: water): 95 % of control | T/C (dose: 7.5 mg/kg/injection, schedule: Q01DX001 (ip), vehicle: water): 118 % of control | T/C (dose: 12.5 mg/kg/injection, schedule: Q01DX Z (oral), vehicle: water): 89 % of control | T/C (dose: 25.0 mg/kg/injection, schedule: Q01DX Z (oral), vehicle: water): 91 % of control

Cc1cccc(CSc2nc(N)nc3ncn(C4CC(O)C(CO)O4)c23)n1 (configuration not stated)
T/C (dose: 100.0 mg/kg/injection, schedule: Q01DX005 (ip), vehicle: saline): 101 % of control | T/C (dose: 200.0 mg/kg/injection, schedule: Q01DX005 (ip), vehicle: saline): 103 % of control

Cc1ccc(C)c(OC2CCCCC2=O)c1 (configuration not stated)
T/C [5]: 100 % of control | T/C [6]: 100 % of control | T/C [7]: 91 % of control

CC(=O)OC1CCC2(C)C(CCC3C2CCC2(C)C3CC3OC(CCC(C)(C)O)C(C)C32)C1 (configuration not stated)
T/C (dose: 100.0 mg/kg/injection, schedule: Q01DX001 (ip), vehicle: saline with Tween-80): 92 % of control | T/C (dose: 200.0 mg/kg/injection, schedule: Q01DX001 (ip), vehicle: saline with Tween-80): 92 % of control | T/C (dose: 400.0 mg/kg/injection, schedule: Q01DX001 (ip), vehicle: saline with Tween-80): 92 % of control

CC(=O)OC(C)COCc1ccccc1 (configuration not stated)
T/C [5]: 107 % of control | T/C [6]: 89 % of control | T/C [7]: 100 % of control

CCOC(=O)CC1OC(=O)c2ccccc21 (configuration not stated)
T/C (dose: 100.0 mg/kg/injection, schedule: Q04DX002 (ip), vehicle: saline with Tween-80): 97 % of control | T/C (dose: 200.0 mg/kg/injection, schedule: Q04DX002 (ip), vehicle: saline with Tween-80): 104 % of control | T/C (dose: 400.0 mg/kg/injection, schedule: Q04DX002 (ip), vehicle: saline with Tween-80): 108 % of control

c1ccc(C(c2ccccc2)c2ccc(C(c3ccccc3)(c3ccccc3)c3ccccc3)cc2)cc1
T/C (dose: 87.5 mg/kg/injection, schedule: Q04DX003 (ip), vehicle: Klucel (hydroxypropylcellulose) (HPC)): 88 % of control

S=C=NCc1ccccc1
T/C (dose: 75.0 mg/kg/injection, schedule: Q01DX001 (ip), vehicle: saline): 97 % of control | T/C (dose: 150.0 mg/kg/injection, schedule: Q01DX001 (ip), vehicle: saline): 105 % of control

COc1cc2c(cc1OC)-c1cc3ccc(OC)c(OC)c3c[n+]1CC2
T/C (dose: 6.25 mg/kg/injection, schedule: Q04DX003 (ip), vehicle: saline): 105 % of control | T/C (dose: 12.5 mg/kg/injection, schedule: Q04DX003 (ip), vehicle: saline): 101 % of control | T/C [10]: 103 % of control

c1cc2c(c(C3=NCCO3)c1)CCCC2 (tested in a mixture with another compound)
T/C [4]: 96 % of control | T/C [16]: 88 % of control | T/C [17]: 91 % of control

CC(C)C(=O)Nc1ccc(S(=O)(=O)NCCO)cc1
T/C [13]: 97 % of control | T/C [14]: 92 % of control | T/C [15]: 92 % of control

C[P+](Cc1ccc([N+](=O)[O-])cc1)(c1ccccc1)c1ccccc1
T/C (dose: 12.5 mg/kg/injection, schedule: Q01DX009 (ip), vehicle: Klucel (hydroxypropylcellulose) (HPC)): 99 % of control | T/C (dose: 12.5 mg/kg/injection, schedule: Q04DX003 (ip), vehicle: Klucel (hydroxypropylcellulose) (HPC)): 100 % of control | T/C (dose: 25.0 mg/kg/injection, schedule: Q01DX009 (ip), vehicle: Klucel (hydroxypropylcellulose) (HPC)): 90 % of control | T/C (dose: 25.0 mg/kg/injection, schedule: Q04DX003 (ip), vehicle: Klucel (hydroxypropylcellulose) (HPC)): 86 % of control | T/C (dose: 50.0 mg/kg/injection, schedule: Q04DX003 (ip), vehicle: Klucel (hydroxypropylcellulose) (HPC)): 96 % of control
